In brackets after ≈: the same amount, converted by molar mass. Activity calls are given as the source filed them. Bounds are passed on as bounds.

For test [1], the system named is Saccharomyces cerevisiae. Briefly: Antifungal activity against Saccharomyces cerevisiae ATCC 24657 assessed as growth inhibition after 24 to 48 hrs by agar plate bioassay. The test is classed as functional.
The test system of test [2] is Candida albicans. Nature of the test: Antifungal activity against Candida albicans assessed as morphogenetic transformation after 3 hrs by phase-contrast microscopy. It counts as functional.
The subject of test [3] is Saccharomyces cerevisiae. Nature of the test: Antifungal activity against Saccharomyces cerevisiae ATCC 24657 assessed as growth inhibition after 24 to 48 hrs by spectrophotometric bioassay. It counts as functional.
The test system of test [4] is Saccharomyces cerevisiae. Briefly: Fungistatic activity against Saccharomyces cerevisiae ATCC 24657 assessed as cell proliferation compound after 24 to 48 hrs by agar plate bioassay. It counts as functional, organism-based.
In test [5] the test system is Saccharomyces cerevisiae. Nature of the test: Fungistatic activity against Saccharomyces cerevisiae ATCC 24657 assessed as cell proliferation compound after 24 to 48 hrs by spectrophotometric bioassay. It counts as functional, organism-based.
Test [6] relates to Candida albicans. Nature of the test: Antifungal activity against Candida albicans ATCC 32032 assessed as growth inhibition after 24 to 48 hrs by agar plate bioassay. It counts as functional.

With `N#CCN1CCN(c2nc3ccc(Cl)cc3s2)CC1`, in the test on Saccharomyces cerevisiae [1], the MIC – broadly, the smallest concentration in the dilution series that meets the test's criterion for growth inhibition – was greater than 200 µM; the MIC50 – broadly, an inhibitory concentration at the 50% level, which refers to growth in some studies and to a panel of isolates in others – turned out to be 27 µM (≈ 7.91 µg/mL). With `Cc1ccc(C(=O)N(C)Cc2ccco2)c(C2CCN(C(=O)/C=C/c3ccc4c(c3)OCO4)CC2)n1`, the MIC with Saccharomyces cerevisiae [1] is greater than 200 µM. For `CC1=C(C#N)C(c2sc3ccccc3c2C)C2=C(CCCC2=O)N1` (stereo not drawn), in the test with Saccharomyces cerevisiae [1], the MIC was greater than 250 µM and the MIC50 is 118 µM (≈ 39.5 µg/mL). Turning to `CCCN(CCC)S(=O)(=O)c1ccc(C(=O)N/N=C/c2ccc(N(C)CCC#N)cc2)cc1`, the minimal inhibitory concentration (MIC) with Saccharomyces cerevisiae [1] was greater than 200 µM. With `FC(F)(F)Oc1ccc(C2c3ccsc3CCN2Cc2ccc3c(c2)CCO3)cc1` (stereo not drawn), the MIC50 in the test with Saccharomyces cerevisiae [1] was 120 µM (≈ 51.8 µg/mL). As for `OC(Cn1cncn1)(Cn1cncn1)c1ccc(F)cc1F` [FLUCONAZOLE], the minimal inhibitory concentration (MIC) with Candida albicans [2] was determined as 104 µM (≈ 32 µg/mL). Turning to `Cc1n[nH]c(=O)c(N)c1-c1cc(-c2ccsc2)[nH]n1`, in the test on Saccharomyces cerevisiae [1], the minimal inhibitory concentration (MIC) was greater than 200 µM. The same measure, in the same setting: for `N#C/C(=C\c1ccc(C(F)(F)F)cc1)c1ccc(OCc2c(F)cccc2Cl)cc1` the value was greater than 200 µM; for `C=CCOc1ccc(/C=C2\CCc3cc(OC)ccc3C2=O)cc1`, greater than 200 µM; for `COc1cc(C(=O)N(CCC#N)C2CC(C)CC(C)(C)C2)cc(OC)c1OC` (stereo not drawn), greater than 200 µM. The same measure, in the same setting: for `Cc1nc(SCc2c(F)cccc2Cl)c(C#N)c(C)c1Cc1c(F)cccc1Cl` the value was greater than 200 µM. Regarding `Cc1cccc(C(=O)Nc2sc3c(c2C(N)=O)CCCC3)c1`, the MIC50 in the test with Saccharomyces cerevisiae [3] turned out to be 50 µM (≈ 15.7 µg/mL). Moreover, the minimal inhibitory concentration (MIC) in the test on Saccharomyces cerevisiae [1] is greater than 200 µM.

For `CC[C@@H]1C(=O)OC[C@@H]1Cc1cncn1C` [PILOCARPINE], in the test on Saccharomyces cerevisiae [1], the minimum inhibitory concentration (MIC) is greater than 200 µM.

On to `CN(CCC#N)c1ccc(C=C(C#N)C#N)cc1`, for which, in the test with Saccharomyces cerevisiae [1], the minimal inhibitory concentration (MIC) was greater than 200 µM.

`C=CCNc1ncnc2sc3c(c12)CCCC3`: the MIC in the test on Saccharomyces cerevisiae [3] amounted to 100 µM (≈ 24.5 µg/mL). The MIC50 in the test with Saccharomyces cerevisiae [3] turned out to be 9.98 µM (≈ 2.45 µg/mL). The outcome in the test with Saccharomyces cerevisiae [4] and in the test with Saccharomyces cerevisiae [5] was inactive. Moreover, the “growth inhibition (GI)” value in the test on Saccharomyces cerevisiae [1] was “inactive”. Regarding `COC(=O)c1cscc1NC(=O)CC(CC(=O)O)c1ccccc1` (stereo not drawn), in the test on Saccharomyces cerevisiae [1], the MIC is greater than 200 µM. Take `CN(C/C=C/C#CC(C)(C)C)Cc1cccc2ccccc12` [TERBINAFINE]: the MIC with Candida albicans [2] turned out to be 439 µM (≈ 128 µg/mL). For the compound `CCOc1ccc(/N=C/c2ccc(N(C)CCC#N)cc2)cc1`, the minimal inhibitory concentration (MIC) with Saccharomyces cerevisiae [1] is greater than 200 µM.

With `Cc1nn(C)c(=O)c2noc(/C=C/c3ccsc3)c12`, the result in the test with Saccharomyces cerevisiae [4] was inactive. Besides, the result in the test on Saccharomyces cerevisiae [5] was inactive. In the test on Saccharomyces cerevisiae [1], the MIC was 120 µM (≈ 32.8 µg/mL) and the MIC50 came to 35 µM (≈ 9.57 µg/mL). For `COC(=O)c1scc(C)c1NC(=O)c1ccc(C(C)(C)C)cc1`, the MIC with Saccharomyces cerevisiae [1] is greater than 200 µM. Consider `Clc1ccc(Cc2ccncc2)cc1`, for which, in the test on Saccharomyces cerevisiae [1], the minimal inhibitory concentration (MIC) was 150 µM (≈ 30.6 µg/mL) and the MIC50 turned out to be 18 µM (≈ 3.67 µg/mL). `O=C(CC(Sc1ccc2ccccc2c1)c1ccsc1)c1ccc(Cl)cc1` (stereo not drawn): the MIC in the test with Saccharomyces cerevisiae [1] is greater than 200 µM. In the case of `Cc1ccc(Cc2cc(C)ncc2C)c(C)c1`, in the test on Saccharomyces cerevisiae [1], the minimal inhibitory concentration (MIC) came to 100 µM (≈ 22.5 µg/mL) and the MIC50 is 14 µM (≈ 3.15 µg/mL). As to `Cc1ccc(C(=O)N(C)Cc2ccco2)c(C2CCN(C(=O)c3cc(C)c(C)o3)CC2)n1`, in the test on Saccharomyces cerevisiae [1], the MIC is greater than 200 µM. Consider `CSc1sc(C(=O)N2CCC3(CCN(C(=O)CNC(=O)c4ccco4)CC3)C2)c2c1C(=O)CCC2`, for which the minimal inhibitory concentration (MIC) with Saccharomyces cerevisiae [1] is greater than 200 µM. As to `CCOC(=O)/C(C#N)=C/c1ccc(N(C)CCC#N)cc1`, the minimal inhibitory concentration (MIC) with Saccharomyces cerevisiae [1] is greater than 200 µM. Regarding `Cc1nc(C)c(C(=O)N2CCC(c3nc(C(=O)N(CCC#N)Cc4ccco4)cs3)CC2)s1`, the MIC in the test with Saccharomyces cerevisiae [1] is greater than 200 µM. Still for that read-out and setting: for `COc1ccc(CC2c3cc(OC)c(OC)cc3CCN2C=C(C#N)C#N)cc1OC` (stereo not drawn) the value was greater than 200 µM. Take `N#CC(c1ccc2c(c1)OCO2)N(Cc1ccccc1)C(=O)c1sc2ccccc2c1Cl` (stereo not drawn): the minimum inhibitory concentration (MIC) in the test on Saccharomyces cerevisiae [1] is greater than 200 µM. For `O=C(/C=C\c1ccco1)NCC(=O)N1CCC(c2nccn2CCc2ccsc2)CC1`, in the test on Saccharomyces cerevisiae [1], the MIC was greater than 200 µM.

For `Cc1ccc(C(=O)N(C)Cc2ccco2)c(C2CCN(C(=O)c3cc(O)nc4ccccc34)CC2)n1`, in the test with Saccharomyces cerevisiae [1], the MIC is greater than 200 µM.

For `O=[N+]([O-])c1ccc(Cc2ccncc2)cc1`, in the test on Saccharomyces cerevisiae [1], the MIC is greater than 200 µM and the MIC50 amounted to 120 µM (≈ 25.7 µg/mL). Turning to `CN(CCC#N)c1ccc(/C=N/NC(=O)N/N=C/c2ccc(N(C)CCC#N)cc2)cc1`, the MIC in the test with Saccharomyces cerevisiae [1] is greater than 200 µM. As to `COc1nc2c(c(-c3ccc[nH]3)c1C#N)Cc1ccccc1-2`, the minimum inhibitory concentration (MIC) with Saccharomyces cerevisiae [1] was greater than 200 µM. On to `N#CC(C#N)=CNc1ccc2oc3ncccc3c(=O)c2c1`, for which the MIC in the test with Saccharomyces cerevisiae [1] is greater than 200 µM.

With `COC(C)(C)CCSc1nc2ccc(NC(=O)CCCC(=O)NCc3ccco3)cc2s1`, the MIC in the test on Saccharomyces cerevisiae [1] is greater than 200 µM. As to `O=C(c1ccncc1)c1ccc(Cl)cc1`, in the test on Saccharomyces cerevisiae [1], the MIC was greater than 200 µM and the MIC50 amounted to 100 µM (≈ 21.8 µg/mL). `Cc1n[nH]c(=O)c2noc(/C=C/c3ccsc3)c12`: the MIC in the test on Saccharomyces cerevisiae [1] was greater than 200 µM. With `COc1ccc(-c2sc(/N=C/c3cc(Br)cc(Br)c3O)c(C#N)c2C)cc1OC`, in the test with Candida albicans [6], the MIC was greater than 100 µM. For the compound `COc1ccc(NC(=S)N/N=C/c2ccc(N(C)CCC#N)cc2)cc1`, the minimal inhibitory concentration (MIC) in the test on Saccharomyces cerevisiae [1] is greater than 200 µM.

On to `Cc1ccc(C(=O)CC(Sc2ccc3ccccc3c2)c2ccsc2)cc1` (stereo not drawn), for which the MIC with Saccharomyces cerevisiae [1] is greater than 150 µM.

With `Cc1c(-c2ccccc2)sc(/N=C/c2cc(Cl)cc(Cl)c2O)c1C#N`, the minimal inhibitory concentration (MIC) in the test on Candida albicans [6] was found to be 40 µM (≈ 15.5 µg/mL). With `CCC(C)(C)c1ccc(CC(C)CN2C[C@@H](C)O[C@@H](C)C2)cc1` (stereo partly drawn) [AMOROLFINE], in the test on Candida albicans [2], the MIC was 202 µM (≈ 64 µg/mL).

As for `CN(CCC#N)c1ccc(/C=N/c2ccc(C(=O)O)cc2)cc1`, in the test on Saccharomyces cerevisiae [1], the minimal inhibitory concentration (MIC) was greater than 200 µM. Regarding `CN(CCC#N)c1ccc(/C=C2\CC/C(=C\c3ccc(N(C)CCC#N)cc3)C2=O)cc1`, in the test on Saccharomyces cerevisiae [1], the MIC was greater than 200 µM. Turning to `CC1CCc2c(sc(NC(=O)Sc3nnc(-c4ccc(Cl)cc4)n3-c3ccccc3)c2C#N)C1` (stereo not drawn), in the test on Candida albicans [6], the MIC is greater than 100 µM.

`Cc1ccc(C(=O)N(C)Cc2ccco2)c(C2CCN(C(=O)/C=C/c3cccs3)CC2)n1`: in the test on Saccharomyces cerevisiae [1], the MIC was greater than 200 µM. As to `Cc1ccc(C(=O)N(C)Cc2ccco2)c(C2CCN(C(=O)c3cc4c(C)nn(C)c4s3)CC2)n1`, the minimal inhibitory concentration (MIC) in the test with Saccharomyces cerevisiae [1] is greater than 200 µM. In the case of `C=CCSc1ncccc1C1=NN(CC(=O)N(CCC(=O)OCC)Cc2ccco2)C(=O)C1`, the minimum inhibitory concentration (MIC) in the test with Saccharomyces cerevisiae [1] is greater than 200 µM. As for `Clc1ccc(COC(Cn2ccnc2)c2ccc(Cl)cc2Cl)c(Cl)c1` (stereo not drawn) [MICONAZOLE], the MIC in the test on Candida albicans [2] turned out to be 76.9 µM (≈ 32 µg/mL). Consider `COc1ccc(C(=O)CCC(=O)N2CCC(c3nc(C(=O)Nc4ccc(O)c(C)c4C)cs3)CC2)cc1`, for which the MIC in the test with Saccharomyces cerevisiae [1] is greater than 200 µM.

As for `c1ccc(Cc2ccncc2)cc1`, in the test on Saccharomyces cerevisiae [1], the MIC was greater than 200 µM and the MIC50 was 100 µM (≈ 16.9 µg/mL). As for `C=CCn1c(SCC(=O)c2ccccc2)nc2sc3c(c2c1=O)CCC(C)C3` (stereo not drawn), the MIC with Saccharomyces cerevisiae [1] was greater than 200 µM.

These data come from ChEMBL document CHEMBL1926617, “Antifungal activities of novel non-azole molecules against S. cerevisiae and C. albicans” (Eur J Med Chem, 2012).
